Source: patent US8952034B2, “Fused heterocyclic compounds as ion channel modulators” (Gilead Sciences, Inc., priority 2009, dated 2015)

Biological target: wild-type human cardiac sodium channel, hNav1.5 (Homo sapiens, UniProt Q14524)
Assay: Late INa screening assay (automated whole cell patch clamp, PatchXpress)
Type: cell-based
Details: compound at 1 μM; HEK293 cells expressing hNav1.5; late INa generated with 10 μM Tefluthrin (or 50 nM ATX II); read-out: LateINa_1 uM (percent block of late INa)
How it was run: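 Late sodium current through wild-type human hNav1.5 stably expressed in HEK293 cells (no beta subunits) was recorded by automated whole-cell patch clamp on a PatchXpress 7000A at 24-27° C. Late INa was induced with 10 μM Tefluthrin or 50 nM ATX II. Cells were stepped from −120 mV to −20 mV for 250 ms at 0.1 Hz, and percent block was normalized to current in Na-free extracellular solution.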

Sequence of wild-type human cardiac sodium channel, hNav1.5 (Q14524 whole entry): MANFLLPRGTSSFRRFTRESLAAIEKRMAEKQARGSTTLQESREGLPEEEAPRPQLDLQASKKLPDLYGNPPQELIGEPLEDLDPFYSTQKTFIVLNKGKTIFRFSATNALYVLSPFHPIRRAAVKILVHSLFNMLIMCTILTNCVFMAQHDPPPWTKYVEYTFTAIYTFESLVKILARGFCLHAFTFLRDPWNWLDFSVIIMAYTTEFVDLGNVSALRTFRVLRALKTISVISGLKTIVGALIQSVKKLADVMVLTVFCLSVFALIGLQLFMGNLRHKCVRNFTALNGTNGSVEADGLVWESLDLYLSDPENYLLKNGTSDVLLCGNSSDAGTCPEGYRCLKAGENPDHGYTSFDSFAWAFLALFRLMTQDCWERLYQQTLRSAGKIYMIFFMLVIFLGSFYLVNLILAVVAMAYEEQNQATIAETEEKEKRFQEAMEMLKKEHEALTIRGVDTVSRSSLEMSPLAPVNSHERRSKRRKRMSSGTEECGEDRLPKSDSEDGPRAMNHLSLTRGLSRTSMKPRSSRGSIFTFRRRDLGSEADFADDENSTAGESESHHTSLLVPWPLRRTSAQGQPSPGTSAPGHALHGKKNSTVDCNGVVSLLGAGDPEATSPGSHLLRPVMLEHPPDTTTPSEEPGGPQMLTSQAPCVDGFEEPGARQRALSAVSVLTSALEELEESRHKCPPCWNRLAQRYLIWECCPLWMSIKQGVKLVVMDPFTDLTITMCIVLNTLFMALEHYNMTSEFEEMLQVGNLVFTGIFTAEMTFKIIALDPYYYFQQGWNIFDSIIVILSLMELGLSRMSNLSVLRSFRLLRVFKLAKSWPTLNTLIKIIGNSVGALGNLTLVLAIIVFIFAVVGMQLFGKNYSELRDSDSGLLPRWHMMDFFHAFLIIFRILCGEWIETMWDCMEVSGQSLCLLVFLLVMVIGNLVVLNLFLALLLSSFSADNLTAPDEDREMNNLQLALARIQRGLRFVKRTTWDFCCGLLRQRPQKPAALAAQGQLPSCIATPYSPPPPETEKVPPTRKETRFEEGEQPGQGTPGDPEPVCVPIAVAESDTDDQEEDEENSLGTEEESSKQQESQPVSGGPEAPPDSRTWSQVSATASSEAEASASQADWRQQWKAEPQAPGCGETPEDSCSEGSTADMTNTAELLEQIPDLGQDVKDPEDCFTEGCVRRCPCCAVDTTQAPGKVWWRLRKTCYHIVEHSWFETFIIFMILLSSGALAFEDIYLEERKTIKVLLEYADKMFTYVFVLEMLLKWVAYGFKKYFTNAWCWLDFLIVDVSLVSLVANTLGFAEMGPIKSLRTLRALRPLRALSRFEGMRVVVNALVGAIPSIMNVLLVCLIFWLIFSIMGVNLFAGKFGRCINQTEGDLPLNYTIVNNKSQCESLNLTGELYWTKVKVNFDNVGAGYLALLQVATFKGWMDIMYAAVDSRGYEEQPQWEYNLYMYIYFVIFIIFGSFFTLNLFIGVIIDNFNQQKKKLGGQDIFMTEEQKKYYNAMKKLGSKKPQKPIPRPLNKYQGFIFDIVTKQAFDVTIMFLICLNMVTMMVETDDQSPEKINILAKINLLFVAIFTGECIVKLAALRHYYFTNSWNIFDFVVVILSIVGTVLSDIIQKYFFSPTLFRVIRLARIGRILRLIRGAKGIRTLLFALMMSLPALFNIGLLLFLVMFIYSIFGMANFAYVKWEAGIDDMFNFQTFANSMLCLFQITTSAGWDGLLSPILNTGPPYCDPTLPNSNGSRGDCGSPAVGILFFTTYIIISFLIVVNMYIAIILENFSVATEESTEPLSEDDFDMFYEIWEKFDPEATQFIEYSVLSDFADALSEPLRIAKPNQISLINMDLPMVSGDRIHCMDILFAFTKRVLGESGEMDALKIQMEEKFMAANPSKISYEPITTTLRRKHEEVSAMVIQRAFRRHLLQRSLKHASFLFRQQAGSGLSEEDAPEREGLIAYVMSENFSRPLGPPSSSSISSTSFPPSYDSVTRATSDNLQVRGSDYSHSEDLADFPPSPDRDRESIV

Going from COc1ccccc1SCC(C)COC(F)(F)c1nnc2ccc(-c3ccc(OC(F)(F)F)cc3)cn12 (stereo not shown) [BHN-262, 3-(difluoro{3-[(2-methoxyphenyl)sulfanyl]-2-methylpropoxy}methyl)-6-[4-(trifluoromethoxy)phenyl][1,2,4]triazolo[4,3-a]pyridine] to CC(OC(F)(F)c1cccnc1)c1nnc2ccc(-c3ccc(OC(F)(F)F)cc3)cn12 (stereo not shown) [BHN-249, 3-{1-[difluoro(pyridin-3-yl)methoxy]ethyl}-6-[4-(trifluoromethoxy)phenyl][1,2,4]triazolo[4,3-a]pyridine], the inhibition at 1 µM falls from 47.8% to 22.7%.

Compared with Cc1cc(-c2ccc(OC(F)(F)F)cc2)cn2nnnc12 [BHN-268, 8-methyl-6-[4-(trifluoromethoxy)phenyl]tetrazolo[1,5-a]pyridine], CN(C)CCOCC(F)(F)c1nnc2ccc(-c3ccc(OC(F)(F)F)cc3)cn12 [BHN-150, 2-(2,2-difluoro-2-{6-[4-(trifluoromethoxy)phenyl][1,2,4]triazolo[4,3-a]pyridin-3-yl}ethoxy)-N,N-dimethylethanamine] is lower in inhibition at 1 µM: 43.2% for the first, 15.6% for the second.

Going from O=C(NCC(F)(F)c1nnc2ccc(-c3ccc(OC(F)(F)F)cc3)cn12)Nc1ccccc1 [BHN-263, 1-(2,2-difluoro-2-{6-[4-(trifluoromethoxy)phenyl][1,2,4]triazolo[4,3-a]pyridin-3-yl}ethyl)-3-phenylurea] to COCC(F)(F)c1nnc2ccc(-c3ccc(Oc4ccc(Cl)cc4)cc3)cn12 [BHN-137, 6-[4-(4-chlorophenoxy)phenyl]-3-(1,1-difluoro-2-methoxyethyl)[1,2,4]triazolo[4,3-a]pyridine], the inhibition at 1 µM rises from 22.6% to 48.2%.

First: FC(F)(F)COc1ccc(-c2ccc3cnc(C(F)(F)F)n3c2)cc1 [BHN-28, 6-[4-(2,2,2-trifluoroethoxy)phenyl]-3-(trifluoromethyl)imidazo[1,5-a]pyridine]
Second: CSc1ccc(-c2ccc3cnc(C(F)(F)F)n3c2)cn1 [BHN-101, 6-[6-(methylsulfanyl)pyridin-3-yl]-3-(trifluoromethyl)imidazo[1,5-a]pyridine]
The inhibition at 1 µM of the first is higher: 46.1% for the first, 32.3% for the second.

COCC(F)(F)c1nnc2ccc(-c3ccc(OCC(F)(F)F)nc3)cn12 [BHN-144, 3-(1,1-difluoro-2-methoxyethyl)-6-[6-(2,2,2-trifluoroethoxy)pyridin-3-yl][1,2,4]triazolo[4,3-a]pyridine] showed an inhibition at 1 µM of 36.4%.

Same assay, conditions: compound at 10 μM; HEK293 cells expressing hNav1.5; late INa generated with 10 μM Tefluthrin (or 50 nM ATX II); read-out: LateINa_10 uM (percent block of late INa)

Compared with FC(F)(F)Oc1ccc(-c2ccc3nnc(C(F)(F)F)n3c2)cc1 [BHN-335, 6-[4-(trifluoromethoxy)phenyl]-3-(trifluoromethyl)[1,2,4]triazolo[4,3-a]pyridine], FC(F)(F)COc1ccc(-c2ccc3cnc(C(F)(F)F)n3c2)cc1 [BHN-28, 6-[4-(2,2,2-trifluoroethoxy)phenyl]-3-(trifluoromethyl)imidazo[1,5-a]pyridine] is lower in inhibition at 10 µM: 87.7% for the first, 78.3% for the second.

First: Cn1cc(-c2nnc3ccc(-c4ccc(Oc5ccccc5)cc4)nn23)cn1 [BHN-43, 3-(1-methyl-1H-pyrazol-4-yl)-6-(4-phenoxyphenyl)[1,2,4]triazolo[4,3-b]pyridazine]
Second: CC(=O)Nc1cc(-c2ccc(OC(F)(F)F)cc2C)cn2c(C)nnc12 [BHN-76, N-{3-methyl-6-[2-methyl-4-(trifluoromethoxy)phenyl][1,2,4]triazolo[4,3-a]pyridin-8-yl}acetamide]
The inhibition at 10 µM of the first is lower: 25.2% for the first, 31.9% for the second.
